ChEMBL document CHEMBL1201862, “PubChem BioAssay data set” (2004)
The source made the active and inactive calls.

What was measured:
[1] = molecular target: T1, Rac GTPase-activating protein 1 (Homo sapiens, UniProt Q9H0H5); test: blockers of MgcRacGAP-driven Rac1 GTP hydrolysis – biochemical, ADP Hunter fluorescence, primary and confirmatory, confirmation (AID 624330); type: functional
T1 sequence (Q9H0H5 whole entry): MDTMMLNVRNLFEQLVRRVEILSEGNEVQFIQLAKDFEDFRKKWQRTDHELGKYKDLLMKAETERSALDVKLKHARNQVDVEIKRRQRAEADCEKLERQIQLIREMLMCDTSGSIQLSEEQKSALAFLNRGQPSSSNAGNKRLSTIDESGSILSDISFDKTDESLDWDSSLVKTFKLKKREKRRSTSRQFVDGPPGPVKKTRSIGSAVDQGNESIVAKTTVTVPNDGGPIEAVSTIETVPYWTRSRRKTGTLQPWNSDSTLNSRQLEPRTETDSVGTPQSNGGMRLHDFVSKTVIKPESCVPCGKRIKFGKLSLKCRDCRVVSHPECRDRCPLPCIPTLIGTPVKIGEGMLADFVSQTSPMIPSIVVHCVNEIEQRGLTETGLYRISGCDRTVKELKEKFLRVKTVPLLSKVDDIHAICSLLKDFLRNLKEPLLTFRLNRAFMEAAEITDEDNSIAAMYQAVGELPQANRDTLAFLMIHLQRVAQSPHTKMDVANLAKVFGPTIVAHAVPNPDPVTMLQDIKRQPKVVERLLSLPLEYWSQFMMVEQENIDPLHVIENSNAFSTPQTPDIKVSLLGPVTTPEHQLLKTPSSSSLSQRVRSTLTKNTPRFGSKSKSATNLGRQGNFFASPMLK

BJ = test: BJ-TERT fibroblast viability loss – cell-based, RAS-independent, luminescence, dose response (AID 1933); type: functional; details: Homo sapiens

`COc1ccc(S(=O)(=O)/N=C2\C=C(Nc3ccc(O)cc3)C(=O)c3ccccc32)cc1` was tested. Which IC50 [1] did it give?
The IC50 was 50.7 µM (active).

And the EC50 (BJ)?
The EC50 was 1.53 µM (active).
